Reference: patent publication US20220370464A1, “COMPOSITIONS AND METHODS OF TREATING OR PREVENTING OCULAR INFECTIONS WITH FILOCICLOVIR” (Microbiotix, Inc., priority 2019, published 2022)
Like-named read-outs stand apart in the source and are kept apart here.

Key:
AdV 8 = experiment: Antiviral EC50 against AdV 8 (method not given); format: cell-based, adenovirus 8; conditions: unidentified adenovirus; AdV 8, summary table
HHV-6A = conditions: β Herpesvirus, cited from earlier work
AdV 4 = experiment: Antiviral EC50 against AdV 4 (method not given); format: cell-based, adenovirus 4; conditions: Human mastadenovirus E; AdV 4, summary table
HHV-6B = conditions: cited from earlier work

Compound: Nc1nc2c(ncn2/C=C2/CC2(CO)CO)c(=O)[nH]1 [Filociclovir, 2-amino-9-{(Z)-[2,2-bis(hydroxymethyl)cyclopropylidene]methyl}-3,9-dihydro-6H-purin-6-one]
- EC50 (AdV 8): 2000 nM
- EC50 (HHV-6A; listed as filociclovir): ≤ 10000 nM
- EC50 (HHV-6A): 1300 nM
- EC50 (AdV 4): 2400 nM
- EC50 (HHV-6B): 2300 ± 1000 nM
- EC50 (HHV-6B; listed as filociclovir): ≤ 10000 nM
